Assay results as given in publication PMC8111447 (Frontiers in Pharmacology, 2021).

Legend:
Assay in all cases: Kinase panel (Eurofins)
Type in all cases: biochemical
Details in all cases: n = 2; for inhibition at 1 µM: at 1 μmol/L; for IC50: read-out: IC50 kinase inhibition
MLCK(h) = target: T1, MLCK(h) (Homo sapiens, UniProt Q9H1R3)
T1 construct: purchased Eurofins
Source text: (§1) These receptors have a methionine gatekeeper in their kinase domains, and are related to hyperglycemia in other clinical trials of EGFR TKI, such as Co-1686.

Pyk2(h) = target: T2, Pyk2(h) (Homo sapiens, UniProt Q14289)
T2 construct: purchased Eurofins
Source text: as §1

Met(h) = target: T3, Met(h) (Homo sapiens, UniProt P08581)
T3 construct: purchased Eurofins
Source text: as §1

MYO3B(h) = target: T4, MYO3B(h) (Homo sapiens, UniProt Q8WXR4)
T4 construct: purchased Eurofins
T4 sequence (Q8WXR4 1-1341): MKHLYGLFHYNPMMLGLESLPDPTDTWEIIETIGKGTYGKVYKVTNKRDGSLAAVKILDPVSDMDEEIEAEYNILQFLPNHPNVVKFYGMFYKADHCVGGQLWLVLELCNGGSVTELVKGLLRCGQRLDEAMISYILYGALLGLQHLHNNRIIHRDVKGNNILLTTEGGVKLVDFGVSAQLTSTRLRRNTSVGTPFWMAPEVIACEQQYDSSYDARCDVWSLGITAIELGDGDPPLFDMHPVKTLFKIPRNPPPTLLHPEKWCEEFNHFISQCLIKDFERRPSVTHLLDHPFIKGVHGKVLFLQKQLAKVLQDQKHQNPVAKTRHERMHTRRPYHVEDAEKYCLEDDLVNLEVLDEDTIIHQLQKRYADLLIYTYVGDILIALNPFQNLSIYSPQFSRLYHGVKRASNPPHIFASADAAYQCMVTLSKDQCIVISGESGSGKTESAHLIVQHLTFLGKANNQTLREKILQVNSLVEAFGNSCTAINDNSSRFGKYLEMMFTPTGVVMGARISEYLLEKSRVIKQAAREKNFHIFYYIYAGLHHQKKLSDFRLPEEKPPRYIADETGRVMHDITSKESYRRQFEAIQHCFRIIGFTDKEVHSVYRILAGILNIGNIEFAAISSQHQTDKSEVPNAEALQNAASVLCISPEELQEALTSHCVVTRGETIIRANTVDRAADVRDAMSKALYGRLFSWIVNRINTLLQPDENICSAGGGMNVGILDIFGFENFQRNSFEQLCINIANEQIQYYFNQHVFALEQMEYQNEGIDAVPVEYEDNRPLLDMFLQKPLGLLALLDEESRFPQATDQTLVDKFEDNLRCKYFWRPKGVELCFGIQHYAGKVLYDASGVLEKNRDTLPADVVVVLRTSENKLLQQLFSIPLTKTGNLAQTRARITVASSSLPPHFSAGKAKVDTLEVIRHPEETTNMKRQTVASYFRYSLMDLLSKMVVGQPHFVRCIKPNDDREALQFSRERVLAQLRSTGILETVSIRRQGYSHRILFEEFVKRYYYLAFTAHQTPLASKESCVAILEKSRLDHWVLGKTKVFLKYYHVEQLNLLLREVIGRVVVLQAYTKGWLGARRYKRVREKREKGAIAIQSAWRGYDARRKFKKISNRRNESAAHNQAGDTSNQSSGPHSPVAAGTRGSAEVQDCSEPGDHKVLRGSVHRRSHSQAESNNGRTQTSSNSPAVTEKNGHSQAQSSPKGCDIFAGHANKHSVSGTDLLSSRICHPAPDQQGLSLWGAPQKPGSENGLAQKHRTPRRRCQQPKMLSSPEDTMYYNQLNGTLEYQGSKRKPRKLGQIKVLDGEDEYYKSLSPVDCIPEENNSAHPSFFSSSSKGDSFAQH
Source text: as §1

HIPK4(h) = target: T5, HIPK4(h) (Homo sapiens, UniProt Q8NE63)
T5 construct: purchased Eurofins
T5 sequence (Q8NE63 1-616): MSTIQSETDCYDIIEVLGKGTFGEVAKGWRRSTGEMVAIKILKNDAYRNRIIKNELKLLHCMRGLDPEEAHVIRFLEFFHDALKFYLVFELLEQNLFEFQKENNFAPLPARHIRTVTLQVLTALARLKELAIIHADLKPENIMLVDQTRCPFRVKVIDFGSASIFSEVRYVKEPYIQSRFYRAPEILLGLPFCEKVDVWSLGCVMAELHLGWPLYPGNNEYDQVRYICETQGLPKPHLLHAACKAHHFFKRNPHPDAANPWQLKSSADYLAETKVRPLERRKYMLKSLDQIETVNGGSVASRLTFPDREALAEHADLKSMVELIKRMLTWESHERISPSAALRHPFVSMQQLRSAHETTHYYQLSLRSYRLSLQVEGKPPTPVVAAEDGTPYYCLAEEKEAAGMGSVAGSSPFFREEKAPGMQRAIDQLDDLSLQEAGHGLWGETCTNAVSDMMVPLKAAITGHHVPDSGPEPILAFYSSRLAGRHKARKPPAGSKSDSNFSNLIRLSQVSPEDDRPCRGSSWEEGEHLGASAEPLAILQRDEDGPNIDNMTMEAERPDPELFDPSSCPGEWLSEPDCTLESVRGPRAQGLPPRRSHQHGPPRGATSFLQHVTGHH
Source text: as §1

Fer(h) = target: T6, Fer(h) (Homo sapiens, UniProt P16591)
T6 construct: purchased Eurofins
Source text: as §1

Flt4(h) = target: T7, Flt4(h) (Homo sapiens, UniProt P35916)
T7 construct: purchased Eurofins
Source text: as §1

T7 sequence (P35916 25-1363): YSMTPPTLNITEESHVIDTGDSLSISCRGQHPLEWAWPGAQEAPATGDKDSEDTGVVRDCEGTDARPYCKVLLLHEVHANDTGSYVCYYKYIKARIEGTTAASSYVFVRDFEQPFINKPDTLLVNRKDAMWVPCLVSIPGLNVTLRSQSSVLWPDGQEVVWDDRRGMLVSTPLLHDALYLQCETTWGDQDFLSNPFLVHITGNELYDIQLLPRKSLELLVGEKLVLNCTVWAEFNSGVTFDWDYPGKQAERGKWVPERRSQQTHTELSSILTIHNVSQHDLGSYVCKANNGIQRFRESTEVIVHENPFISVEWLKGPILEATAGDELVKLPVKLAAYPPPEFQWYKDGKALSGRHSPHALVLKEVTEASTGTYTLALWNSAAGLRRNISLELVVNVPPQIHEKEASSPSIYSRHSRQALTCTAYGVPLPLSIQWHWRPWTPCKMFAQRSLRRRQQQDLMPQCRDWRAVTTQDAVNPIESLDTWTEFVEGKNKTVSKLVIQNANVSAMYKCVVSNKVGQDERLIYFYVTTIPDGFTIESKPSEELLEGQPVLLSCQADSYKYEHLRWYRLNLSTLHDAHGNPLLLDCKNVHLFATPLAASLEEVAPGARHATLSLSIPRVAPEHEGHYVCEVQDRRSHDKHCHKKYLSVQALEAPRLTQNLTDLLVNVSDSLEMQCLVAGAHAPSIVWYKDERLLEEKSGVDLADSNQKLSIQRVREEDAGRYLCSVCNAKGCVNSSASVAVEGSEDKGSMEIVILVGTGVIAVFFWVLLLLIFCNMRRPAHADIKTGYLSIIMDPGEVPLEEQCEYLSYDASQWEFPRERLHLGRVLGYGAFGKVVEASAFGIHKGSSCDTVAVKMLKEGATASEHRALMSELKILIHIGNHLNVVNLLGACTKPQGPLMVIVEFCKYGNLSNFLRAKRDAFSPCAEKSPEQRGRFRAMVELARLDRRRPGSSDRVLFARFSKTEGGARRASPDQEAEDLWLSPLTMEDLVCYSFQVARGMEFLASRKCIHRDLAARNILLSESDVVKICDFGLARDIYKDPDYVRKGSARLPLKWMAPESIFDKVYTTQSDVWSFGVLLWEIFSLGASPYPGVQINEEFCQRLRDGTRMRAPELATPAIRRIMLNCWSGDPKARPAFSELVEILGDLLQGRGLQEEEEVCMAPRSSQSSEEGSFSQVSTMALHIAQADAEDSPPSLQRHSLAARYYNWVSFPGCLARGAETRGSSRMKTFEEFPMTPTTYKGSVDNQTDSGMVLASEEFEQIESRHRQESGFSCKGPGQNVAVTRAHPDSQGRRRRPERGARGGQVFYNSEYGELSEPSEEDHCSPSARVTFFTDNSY
T2 sequence (Q14289 whole entry): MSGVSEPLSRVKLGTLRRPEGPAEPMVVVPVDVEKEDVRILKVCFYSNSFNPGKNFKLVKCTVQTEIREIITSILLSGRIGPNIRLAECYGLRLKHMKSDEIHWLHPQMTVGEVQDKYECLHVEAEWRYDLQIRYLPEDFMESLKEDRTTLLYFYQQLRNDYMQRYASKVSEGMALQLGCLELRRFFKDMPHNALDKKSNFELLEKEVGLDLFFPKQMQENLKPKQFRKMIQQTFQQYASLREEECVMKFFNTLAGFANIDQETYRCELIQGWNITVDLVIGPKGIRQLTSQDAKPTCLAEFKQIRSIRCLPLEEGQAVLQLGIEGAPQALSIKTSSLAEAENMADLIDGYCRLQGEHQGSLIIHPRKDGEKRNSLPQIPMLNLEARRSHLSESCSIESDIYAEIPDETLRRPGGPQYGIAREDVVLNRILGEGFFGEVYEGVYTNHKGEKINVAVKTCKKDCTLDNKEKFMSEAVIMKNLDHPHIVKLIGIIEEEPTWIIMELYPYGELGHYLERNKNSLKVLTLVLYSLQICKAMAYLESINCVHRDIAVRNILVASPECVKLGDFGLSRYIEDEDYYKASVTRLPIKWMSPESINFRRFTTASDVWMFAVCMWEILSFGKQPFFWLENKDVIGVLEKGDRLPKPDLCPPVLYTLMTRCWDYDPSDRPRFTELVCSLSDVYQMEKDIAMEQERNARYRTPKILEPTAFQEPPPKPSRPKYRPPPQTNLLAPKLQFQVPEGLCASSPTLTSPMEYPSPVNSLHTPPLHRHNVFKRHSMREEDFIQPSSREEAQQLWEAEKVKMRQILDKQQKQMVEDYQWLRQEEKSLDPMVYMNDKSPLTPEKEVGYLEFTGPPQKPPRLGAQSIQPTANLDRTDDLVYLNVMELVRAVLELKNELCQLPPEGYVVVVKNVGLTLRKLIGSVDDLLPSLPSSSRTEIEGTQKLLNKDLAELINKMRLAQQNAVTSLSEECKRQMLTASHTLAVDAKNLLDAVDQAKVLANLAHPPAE
T6 sequence (P16591 whole entry): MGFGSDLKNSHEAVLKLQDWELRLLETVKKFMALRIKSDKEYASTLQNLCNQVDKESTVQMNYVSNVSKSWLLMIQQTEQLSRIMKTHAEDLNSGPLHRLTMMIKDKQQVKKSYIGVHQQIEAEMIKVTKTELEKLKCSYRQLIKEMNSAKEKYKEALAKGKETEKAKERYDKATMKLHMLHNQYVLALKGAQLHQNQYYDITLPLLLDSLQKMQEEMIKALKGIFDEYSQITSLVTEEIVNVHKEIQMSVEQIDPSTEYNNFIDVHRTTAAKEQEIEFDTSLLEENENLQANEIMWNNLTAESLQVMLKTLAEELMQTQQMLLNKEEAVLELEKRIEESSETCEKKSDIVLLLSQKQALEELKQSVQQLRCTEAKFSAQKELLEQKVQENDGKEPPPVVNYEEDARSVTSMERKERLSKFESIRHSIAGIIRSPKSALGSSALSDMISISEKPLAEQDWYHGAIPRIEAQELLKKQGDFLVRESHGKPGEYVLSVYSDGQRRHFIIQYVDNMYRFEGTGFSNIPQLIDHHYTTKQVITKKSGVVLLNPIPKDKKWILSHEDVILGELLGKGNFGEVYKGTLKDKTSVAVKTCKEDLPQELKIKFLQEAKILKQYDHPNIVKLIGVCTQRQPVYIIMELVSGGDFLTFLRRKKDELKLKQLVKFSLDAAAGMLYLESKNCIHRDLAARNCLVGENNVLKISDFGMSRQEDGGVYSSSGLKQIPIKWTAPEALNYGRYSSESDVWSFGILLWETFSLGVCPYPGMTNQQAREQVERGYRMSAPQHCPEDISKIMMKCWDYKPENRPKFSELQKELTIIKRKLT
T3 sequence (P08581 25-1390): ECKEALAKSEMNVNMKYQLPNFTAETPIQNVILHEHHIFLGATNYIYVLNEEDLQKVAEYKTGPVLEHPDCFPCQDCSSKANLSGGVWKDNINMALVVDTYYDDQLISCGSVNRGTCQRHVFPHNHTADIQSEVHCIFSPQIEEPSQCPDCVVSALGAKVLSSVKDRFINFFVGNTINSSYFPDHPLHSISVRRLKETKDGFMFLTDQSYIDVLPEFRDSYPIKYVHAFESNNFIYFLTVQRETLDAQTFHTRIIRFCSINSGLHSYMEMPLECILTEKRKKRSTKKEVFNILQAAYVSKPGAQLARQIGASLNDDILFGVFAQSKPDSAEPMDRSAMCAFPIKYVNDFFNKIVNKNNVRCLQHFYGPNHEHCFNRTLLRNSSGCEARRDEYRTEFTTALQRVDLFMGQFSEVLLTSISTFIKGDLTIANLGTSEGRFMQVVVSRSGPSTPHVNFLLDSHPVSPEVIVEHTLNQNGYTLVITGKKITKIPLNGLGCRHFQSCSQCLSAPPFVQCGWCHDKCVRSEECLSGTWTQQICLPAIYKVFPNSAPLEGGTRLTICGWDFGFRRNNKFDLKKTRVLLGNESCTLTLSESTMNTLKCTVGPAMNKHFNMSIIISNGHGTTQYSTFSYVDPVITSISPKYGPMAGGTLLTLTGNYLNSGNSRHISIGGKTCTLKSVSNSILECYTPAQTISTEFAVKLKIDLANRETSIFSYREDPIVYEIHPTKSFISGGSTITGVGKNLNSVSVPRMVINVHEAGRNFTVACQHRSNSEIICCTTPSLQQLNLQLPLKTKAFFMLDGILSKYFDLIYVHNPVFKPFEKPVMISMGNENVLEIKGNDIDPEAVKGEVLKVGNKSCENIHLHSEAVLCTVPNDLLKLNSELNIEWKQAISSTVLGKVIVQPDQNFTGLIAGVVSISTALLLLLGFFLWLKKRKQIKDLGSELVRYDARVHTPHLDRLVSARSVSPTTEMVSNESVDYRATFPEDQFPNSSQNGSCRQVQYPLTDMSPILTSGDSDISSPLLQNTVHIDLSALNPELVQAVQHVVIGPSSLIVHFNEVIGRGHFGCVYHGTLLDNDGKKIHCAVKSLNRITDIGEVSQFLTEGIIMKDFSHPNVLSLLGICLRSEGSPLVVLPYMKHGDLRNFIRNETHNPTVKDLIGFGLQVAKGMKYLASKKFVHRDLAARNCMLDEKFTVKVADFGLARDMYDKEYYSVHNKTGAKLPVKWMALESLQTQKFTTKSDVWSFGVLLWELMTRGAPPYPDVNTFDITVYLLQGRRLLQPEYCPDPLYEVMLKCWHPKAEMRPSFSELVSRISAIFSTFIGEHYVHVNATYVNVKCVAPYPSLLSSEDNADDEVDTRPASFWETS

inhibition at 1 µM (MLCK(h)) [%] | IC50 (MLCK(h)) [nM] | inhibition at 1 µM (Pyk2(h)) [%] | IC50 (Pyk2(h)) [nM] | inhibition at 1 µM (Met(h)) [%] | IC50 (Met(h)) [nM] | inhibition at 1 µM (MYO3B(h)) [%] | IC50 (MYO3B(h)) [nM] | inhibition at 1 µM (HIPK4(h)) [%] | IC50 (HIPK4(h)) [nM] | inhibition at 1 µM (Fer(h)) [%] | IC50 (Fer(h)) [nM] | inhibition at 1 µM (Flt4(h)) [%] | IC50 (Flt4(h)) [nM] | Structure (SMILES)
55 | 400 | 73 | 228 | 46 | 737 | 58 | 349 | 67 | 232 | 45 | 542 | 92 | 62 | C=CC(=O)Nc1cc(Nc2nccc(-c3c4n(c5ccccc35)CCCC4)n2)c(OC)cc1N(C)CCN(C)C [SH-1028]
68 | 597 | 83 | 227 | 73 | 486 | 67 | 506 | 82 | 276 | 80 | 452 | 96 | 104 | C=CC(=O)Nc1cc(Nc2nccc(-c3c4n(c5ccccc35)CCCC4)n2)c(OC)cc1N(C)CCNC [Imp3]
